Reference: patent US7258999B2, “PTH responsive gene” (Wyeth, priority 2002, dated 2007)

Legend:
PAIGB expression = assay: Northern blot of PAIGB in rat tibia RNA; assay type: in vivo; conditions: intermittent PTH
Protocol: Isolated RNA was run on 1.2% agorase gel in 1×MOPS ((3-[N-morpholino]propanesulfonic acid) buffer) and formaldehyde. RNA gel was run in 1×MOPS (Sigma). RNA was transferred on nylon membrane (S&S) using Turbo-blot according to instruction provided by manufacturer (S&S). RADE fragment(s) as well as GAPDH or ciclophylin were labeled using random prime labeling kit (Gibco, BRL) according to provided instructions. Hybridization with labeled probes was performed using ExpressHyb (Sigma), at 68° C. over night. Blots were washed 2 times at room temperature for 15 min in low stringency buffer (2×SSC, 0.1% SDS), and 1 time at 65° C. for 15 min in […]. Blots were exposed over night using Kodak film.
In order to confirm the results from RADE experiments data, Northern blot analysis was done on RNA samples from rat tibia after intermittent and continuous PTH injections. […] In addition a multiple tissue northern blot was performed on the samples provided by commercially available blots. The northern blot analysis indicated very abundant expression of PAIGB in brain, but little expression in heart and lung.

PAIGB protein = assay: Immunohistochemistry of PAIGB protein in mouse calvariae; assay type: in vivo; conditions: Swiss Webster mice, 20 μg/kg/day sc onto the calvariae, 18 days
Protocol: Immunohistochemical analysis of PAIGB protein express can be assessed in various animal species such as human bone biopsy samples, mouse, rat, or dog bone samples etc., that have been treated with potential bone anabolic agents. For example, Swiss Webster mice were treated with 20 μg/kg/day PTH 1-34 subcutaneously onto the calvariae for 18 days. Following the 18 days, the calvariae samples were harvested and PAIGB protein expression was analyzed using the PAIGB polyclonal antibody (FIG. 20, FIG. 21 and FIG. 22).
The mouse calvariae was gently dissected and fixed in 10% phosphate-buffered formalin. After fixation, the calvariae were decalcified in TBD-2 decalcifying agent (SHANDON, Cat. # 6764003) for 7-8 hrs, dehydrated in graded alcohol, embedded in paraffin. The calvariae was bisected perpendicular to the sagittal suture through the central portion of the parietal bones parallel to the lambdoidal and coronal sutures and embedded in paraffin. Four to six 5 μm-thick representative, non-consecutive step sections were cut. Various sections were stained with hematoxylin and eosin (H&E) (Sigma, St. Louis, Mo.) and adjacent section were used for immunohistochemistry. The bone samples were then deparafinized in xylene and rehydrated in graded ethanol and PBS. […] The peroxidase was detected using peroxidase substrate kit DAB (SK-4100, Vector Laboratories).

Substance: human PTH (1-34)
- increase of PAIGB expression vs vehicle (phosphor-imager, Northern blot) (PAIGB expression): 36 fold
- PAIGB protein expression in calvariae (immunohistochemistry) (PAIGB protein): induced
